64 compounds from a melting point compilation (Tetko et al.; mined from patent text by program, amines drawn as free bases though some values may be those of a salt) can be followed below.

The structures appear in SMILES notation.

By melting point is commonly meant the temperature of the solid-liquid transition.

As for `Nc1nc2[nH]c(CCC#Cc3cscc3C(=O)N[C@@H](CCC(=O)O)C(=O)O)cc2c(=O)[nH]1`, the melting point lay within 181 to 182 °C.
Compound `OCCNC(c1ccccc1)c1ccccc1` registered a melting point of 69 to 70 °C.
In turn, `CCCC[C@]1(CC)CS(=O)(=O)c2cc(O)c(OC)cc2[C@@H](c2ccccc2)N1` displayed a melting point of 165 to 166 °C.
`C[C@]1(CN2CCN(N=Cc3cc4cc(C(F)(F)F)ccc4o3)CC2)Cn2cc([N+](=O)[O-])nc2O1`: the melting point is 190 to 192 °C.
On to `CCN1C(=O)C(=O)N(c2ccc(F)cc2)C1=S`, for which the melting point lay in the range of 172 to 174 °C.
The same measure for `Cc1ccc(CCN2C(=O)COc3ccc(C=C4SC(=S)NC4=O)cc32)cc1`: 267 to 269 °C; for `Cc1ccccc1Oc1cccc(CC(=O)O)c1[N+](=O)[O-]`: 158 to 160 °C; for `O=C(COC(F)(F)F)Nc1ccccc1`: 64 to 66.5 °C.
`O=Cc1c(O)cccc1[N+](=O)[O-]` yielded a melting point of 52 to 53 °C.
As for `CCOC(=O)C(C(=O)OCC)n1cccc1C(=O)C(Cl)(Cl)Cl`, the melting point lay within 67 to 69 °C.
In turn, `c1cc(-c2cc(C3CC3)on2)ccn1` yielded a melting point of 76 to 80 °C.
Consider `CC(C)Oc1c(C(N)=O)oc2ccc(Cl)cc12`, for which the melting point fell in the range of 154 to 155 °C.
The value for `COc1ccc(N(C)c2nc(N)nc3[nH]c4cccc(Cl)c4c23)cc1` was 163 to 164 °C.
The same measure for `CC(=O)c1ccc(-c2ccc(C#N)cc2)o1`: 115 to 116 °C; for `CC(C)(C)NS(=O)(=O)c1ccc(Cl)cc1C=C1CCOC1=O`: 198 to 201 °C.
Regarding `N#Cc1c(C2CC2)nn(-c2c(Cl)cc(C(F)(F)F)cc2Cl)c1N`, the melting point fell in the range of 197 to 199 °C.
As for `CCCCCCCCCCCCCCNCc1ccc(OCc2cccc(F)c2)cc1`, the melting point amounted to 58 °C.
Compound `CCC1(CC(=O)O)OCCc2nc(-c3ccccc3)sc21` (centres undefined) gave a melting point of 106 to 108 °C.
`CCOC(=O)CCCNC1N=C(c2ccccc2Cl)c2c(cn(C)c2C)N(C)C1=O` (centres undefined) displayed a melting point of 105 to 107 °C.
Take `COc1cc2c(Nc3ccc(Cl)cc3F)ncnc2cc1OCCCn1ccccc1=O`: the melting point lay in the range of 216 to 218 °C.
The compound `COC(=O)CCCCCCCCCCCCCCCCCCCCC(=O)c1c(C)cc(OC)c(OC)c1O` showed a melting point of 72 to 72.5 °C.
`Nc1ccc2c(c1)CN(Cc1ccccc1)C2` displayed a melting point of 110 to 115 °C.
The value for `CCNC(=O)N1c2ccccc2-c2noc3c2C1CCC3` (centres undefined) was 189 °C; that for `Cn1ncnc1COc1nc2c(-c3c(F)cccc3F)nncn2c1-c1ccccc1` was 190 °C; that for `CC1(C(O)=Nc2cc(Cl)cc(Cl)c2)CCC1C(=O)O` (centres undefined) was 110 to 111 °C.
Take `CC12CCC(=O)C=C1CCC1C2CCC2(C)C1CC(O)C2NCC(=O)C(F)(F)F` (centres undefined): the melting point was 217 to 220 °C.
`Nc1cccc(C(CC2=NCCN2)c2ccccn2)c1` (centres undefined) yielded a melting point of 154 to 155 °C.
The same measure for `COc1ccc(-n2cnc(-c3cc(OC)cc(OC)c3)c2-c2ccc(OC)c(O)c2)cc1`: 131 to 134 °C; for `CCOC(=O)C1(S(=O)(=O)c2ccc(OCc3ccccc3)cc2)CCN(Cc2ccccc2)CC1`: 89 °C.
On to `CC(C)(C)OC(=O)N1CCC(NC(=O)Nc2ccc(OC(F)(F)F)cc2)CC1`, for which the melting point is 160 to 162 °C.
For the compound `CC=CC(=O)NCc1ccccc1`, the melting point fell in the range of 112 to 114 °C.
Consider `O=C(O)Cn1cc(Cc2nc3c(F)c(F)cc(F)c3s2)c2ccc(N3CCOCC3)cc21`, for which the melting point is 178 to 180 °C.
`NS(=O)(=O)c1cc2nc(O)c(O)nc2c2scnc12`: the melting point was more than 400 °C.
`C=CCN(Cc1cc(Br)ccc1OCc1ccccc1)c1ccc(C(=O)O)nn1` returned a melting point of 135 to 136 °C.
`CCc1nn(C2CCCC2)c2cc(C(=O)Nc3cccc4ncccc34)ccc12` registered a melting point of 176 to 178 °C.
`COc1ccc(C(=S)Nc2ccccc2)cc1NS(=O)(=O)c1cc(Cl)cc(Cl)c1` came in with a melting point of 206 to 208 °C.
The value for `O=C1c2ccccc2-c2ccc(-c3nc(CCl)co3)cc21` was 188 to 189 °C; that for `COc1ccc(Cl)cc1NC(=O)Nc1ccc(N2CCN(C(=O)OC(C)(C)C)CC2)cc1` was 205 °C; that for `CCn1cc(C(=O)NO)c(=O)c2ccc(-c3ccncc3)cc21` was 245 °C.
`COc1ccc2c(c1)NCCO2` displayed a melting point of 59 to 61 °C.
`O=C(Nc1ncccn1)Nc1ccccc1C(F)(F)F` showed a melting point of 224 to 225 °C.
Compound `CCCCCCCCCCCCCCCCCCOc1cc(OCCCBr)cc(N(CC(=O)OC)CC(=O)OC)c1` showed a melting point of 67 to 69 °C.
`CCCC(=O)Oc1cc(-c2nc3cc(F)ccc3s2)ccc1OC` registered a melting point of 125 °C.
Turning to `Cc1nc(N2C(=O)N(Cc3ccc(F)cc3)CC2O)sc1C(=O)NCc1cccnc1` (centres undefined), the melting point fell in the range of 64 to 66 °C.
Compound `CCc1ccc(S(=O)(=O)n2c(COC(C)(C)C(=O)O)cc3nc(Cl)ccc32)cc1` yielded a melting point of 172 °C.
The value for `N#Cc1cc(F)c(N)c(Br)c1F` was 106 to 108 °C.
Take `CCCN(CCC)S(=O)(=O)c1cc(-c2csc(=Nc3ccccc3C)n2C)ccc1Cl`: the melting point was in the range of 114 to 116 °C.
Regarding `O=C(c1ccc(Cl)cc1)C(O)c1ccc(Cl)cc1` (centres undefined), the melting point was 73 °C.
In the case of `COc1cc(NC(C)=O)ccc1OCC(O)CN1CCN(c2ccccc2F)CC1` (centres undefined), the melting point was found to be 144 °C.
For `O=[N+]([O-])c1cn2c(n1)O[C@@H](COc1ccc(N3CCC(OCc4ccc(OC(F)(F)F)cc4)CC3)cc1)C2`, the melting point lay within 188 to 189 °C.
`CC(=O)Nc1sc2c(c1C(=O)c1ccco1)CCCC2`: the melting point lay within 126 to 127 °C.
Compound `COc1cc(OC(=O)c2cc(O)c(O)c(O)c2)ccc1OC(=O)c1cc(O)c(O)c(O)c1` yielded a melting point of 214 to 216 °C.
On to `CSC1CC(=O)N1CC(=O)OCc1ccccc1` (single isomer, unassigned; (-)), for which the melting point was 38 to 40 °C.
Compound `COCC(=O)Nc1cccc(-c2ccnc(NCCc3ccc(OC)c(OC)c3)n2)c1` returned a melting point of 140 to 141 °C.
As to `CON(C)C(=O)c1cccc(-c2nc3sccn3c2-c2ccnc(N[C@@H]3CCCN(S(=O)(=O)c4ccc(Cl)cc4)C3)n2)c1`, the melting point lay within 114 to 115 °C.
On to `OCc1ccc(Br)nc1`, for which the melting point fell in the range of 49 to 51 °C.
Take `CNS(=O)(=O)c1cccc(-c2cc(-c3nc(-c4ccc(C(F)(F)F)cc4)cc(C(F)(F)F)n3)ccn2)c1`: the melting point turned out to be 174 °C.
In turn, `CSC(=NC(=O)OC(C)(C)C)NNC(=O)NC(=O)OCc1ccccc1` gave a melting point of 120 to 123 °C.
Turning to `COc1cccc(C(=O)Nc2nnn[nH]2)c1N`, the melting point lay in the range of 268 to 269 °C.
The value for `O=C(O)CCC1CCCC2CCC(=O)NC12` (centres undefined) was 95 to 97 °C.
In turn, `Cc1cc(F)ccc1C(=C(C=CC=O)c1nnnn1C)c1ccc(F)cc1C` came in with a melting point of 75 to 95 °C.
Compound `CC(C)(C)OC(=O)N[C@@H](Cc1ccccc1)C(=O)CCC(=O)O` showed a melting point of 108 to 110 °C.
`CCCCCOc1ccc(C=O)cc1O` returned a melting point of 55 to 56 °C.
`CCOC(=O)COc1ccc(NC(=O)NC(=O)c2ccc(C#N)cc2)cc1` returned a melting point of 200 to 203 °C.
